US9708314B2, “Heterocyclic amide compound” (NISSAN CHEMICAL INDUSTRIES, LTD., priority 2013, dated 2017)

Tests used:
Format in all cases: in vivo
[1] = tested on: Cyperus difformis; test: Test Example 3: herbicidal effect by application to foliage (Wagner pot, water depth 0.1-0.5 cm); conditions: Nineteenth Table; application to foliage; application herbicide amount 320 g/ha
Method in brief: (§1)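 Post-emergence foliar application at a stated g/ha rate to plants grown 14 days from seed in alluvial soil, greenhouse 25–30 °C. Visual score after 3 weeks: 0 (≤5% effect) through 5 (≥90%).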

[2] = tested on: Echinochloa crus-galli var. crus-galli; test: as above; conditions: Nineteenth Table; application to foliage; application herbicide amount 320 g/ha
Method in brief: as §1

[3] = tested on: Leptochloa chinensis; test: as above; conditions: Nineteenth Table; application to foliage; application herbicide amount 320 g/ha
Method in brief: as §1

[4] = tested on: directly sowed Oryza sativa; test: Test Example 3: effect on crop by application to foliage (Wagner pot, water depth 0.1-0.5 cm); conditions: Nineteenth Table; application to foliage; application herbicide amount 320 g/ha
Method in brief: as §1

[5] = tested on: Abutilon theophrasti; test: Test Example 4: herbicidal effect by application to foliage (diluvial soil, plastic box); conditions: foliage application
Method in brief: (§2)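 Scores run from 0 (herbicidal ratio ≤5%) to 5 (≥90%, almost fully withered) and were assessed three weeks after foliar spraying. Seedlings had been raised for 14 days at 25-30° C in sterilized diluvial soil before treatment, with the emulsion diluted in water to the stated g/ha dose.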

[6] = tested on: Alopecurus myosuroides; test: as above; conditions: foliage application
Method in brief: as §2

[7] = tested on: Amaranthus retroflexus; test: as above; conditions: foliage application
Method in brief: as §2

[8] = tested on: Apera spica-venti.; test: as above; conditions: foliage application
Method in brief: as §2

[9] = tested on: Avena fatua; test: as above; conditions: foliage application
Method in brief: as §2

[10] = tested on: Chenopodium album; test: as above; conditions: foliage application
Method in brief: as §2

[11] = tested on: Digitaria ciliaris; test: as above; conditions: foliage application
Method in brief: as §2

[12] = tested on: Echinochloa crus-galli var. crus-galli; test: as above; conditions: foliage application
Method in brief: as §2

[13] = tested on: Galium spurium; test: as above; conditions: foliage application
Method in brief: as §2

[14] = tested on: Lolium multiflorum Lam.; test: as above; conditions: foliage application
Method in brief: as §2

[15] = tested on: Setaria viridis; test: as above; conditions: foliage application
Method in brief: as §2

[16] = tested on: Stellaria media; test: as above; conditions: foliage application
Method in brief: as §2

[17] = tested on: Veronica persica; test: as above; conditions: foliage application
Method in brief: as §2

[18] = tested on: Beta vulgaris ssp. vulgaris; test: Test Example 4: effect on crop by application to foliage (diluvial soil, plastic box); conditions: foliage application
Method in brief: as §2

[19] = tested on: Brassica campestris L.; test: as above; conditions: foliage application
Method in brief: as §2

[20] = tested on: Glycine max; test: as above; conditions: foliage application
Method in brief: as §2

[21] = tested on: Triticum aestivum; test: as above; conditions: foliage application
Method in brief: as §2

[22] = tested on: Zea mays; test: as above; conditions: foliage application
Method in brief: as §2

[23] = tested on: directly sowed Oryza sativa; test: as above; conditions: foliage application
Method in brief: as §2

[24] = Application herbicide amount 320 g/ha

Cc1nnc(NC(=O)c2ccc(C(F)(F)F)n3c(SCC#N)nnc23)o1 [1-117]
E (herbicidal effect grade) [1]: 2 (Herbicidal ratio of 20% or more and less than 40%) | H (herbicidal effect grade) [2]: 4 (Herbicidal ratio of 70% or more and less than 90%) | D (herbicidal effect grade) [3]: 4 (Herbicidal ratio of 70% or more and less than 90%) | b (effect on crop grade) [4]: 0 (Herbicidal ratio of 5% or less (almost no effect)) | M (Abutilon theophrasti) herbicidal effect grade [5, 24]: 3 (Herbicidal ratio of 40% or more and less than 70%) | J (Alopecurus myosuroides) herbicidal effect grade [6, 24]: 0 (Herbicidal ratio of 5% or less (almost no effect)) | N (Amaranthus retroflexus) herbicidal effect grade [7, 24]: 3 (Herbicidal ratio of 40% or more and less than 70%) | L (Apera spica-venti.) herbicidal effect grade [8, 24]: 0 (Herbicidal ratio of 5% or less (almost no effect)) | I (Avena fatua) herbicidal effect grade [9, 24]: 0 (Herbicidal ratio of 5% or less (almost no effect)) | O (Chenopodium album) herbicidal effect grade [10, 24]: 5 (Herbicidal ratio of 90% or more (almost completely withered)) | F (Digitaria ciliaris) herbicidal effect grade [11, 24]: 1 (Herbicidal ratio of 5% or more and less than 20%) | H (Echinochloa crus-galli var. crus-galli) herbicidal effect grade [12, 24]: 4 (Herbicidal ratio of 70% or more and less than 90%) | Q (Galium spurium) herbicidal effect grade [13, 24]: 1 (Herbicidal ratio of 5% or more and less than 20%) | K (Lolium multiflorum Lam.) herbicidal effect grade [14, 24]: 0 (Herbicidal ratio of 5% or less (almost no effect)) | G (Setaria viridis) herbicidal effect grade [15, 24]: 1 (Herbicidal ratio of 5% or more and less than 20%) | P (Stellaria media) herbicidal effect grade [16, 24]: 3 (Herbicidal ratio of 40% or more and less than 70%) | R (Veronica persica) herbicidal effect grade [17, 24]: 3 (Herbicidal ratio of 40% or more and less than 70%) | f (Beta vulgaris ssp. vulgaris) effect on crop grade [18, 24]: 3 (Herbicidal ratio of 40% or more and less than 70%) | g (Brassica campestris L.) effect on crop grade [19, 24]: 1 (Herbicidal ratio of 5% or more and less than 20%) | d (Glycine max) effect on crop grade [20, 24]: 3 (Herbicidal ratio of 40% or more and less than 70%) | e (Triticum aestivum) effect on crop grade [21, 24]: 0 (Herbicidal ratio of 5% or less (almost no effect)) | c (Zea mays) effect on crop grade [22, 24]: 0 (Herbicidal ratio of 5% or less (almost no effect)) | b (directly sowed Oryza sativa) effect on crop grade [23, 24]: 0 (Herbicidal ratio of 5% or less (almost no effect))

Cn1nnnc1NC(=O)c1ccc(C(F)(F)F)n2c(CS(=O)(=O)CC(F)(F)F)nnc12 [2-036]
E (herbicidal effect grade) [1]: 4 (Herbicidal ratio of 70% or more and less than 90%) | H (herbicidal effect grade) [2]: 4 (Herbicidal ratio of 70% or more and less than 90%) | D (herbicidal effect grade) [3]: 5 (Herbicidal ratio of 90% or more (almost completely withered)) | b (effect on crop grade) [4]: 1 (Herbicidal ratio of 5% or more and less than 20%) | M (Abutilon theophrasti) herbicidal effect grade ([5]; 320 g/ha): 5 (Herbicidal ratio of 90% or more (almost completely withered)) | J (Alopecurus myosuroides) herbicidal effect grade ([6]; 320 g/ha): 0 (Herbicidal ratio of 5% or less (almost no effect)) | N (Amaranthus retroflexus) herbicidal effect grade ([7]; 320 g/ha): 5 (Herbicidal ratio of 90% or more (almost completely withered)) | L (Apera spica-venti.) herbicidal effect grade ([8]; 320 g/ha): 3 (Herbicidal ratio of 40% or more and less than 70%) | I (Avena fatua) herbicidal effect grade ([9]; 320 g/ha): 1 (Herbicidal ratio of 5% or more and less than 20%) | O (Chenopodium album) herbicidal effect grade ([10]; 320 g/ha): 5 (Herbicidal ratio of 90% or more (almost completely withered)) | F (Digitaria ciliaris) herbicidal effect grade ([11]; 320 g/ha): 5 (Herbicidal ratio of 90% or more (almost completely withered)) | H (Echinochloa crus-galli var. crus-galli) herbicidal effect grade ([12]; 320 g/ha): 5 (Herbicidal ratio of 90% or more (almost completely withered)) | Q (Galium spurium) herbicidal effect grade ([13]; 320 g/ha): 4 (Herbicidal ratio of 70% or more and less than 90%) | K (Lolium multiflorum Lam.) herbicidal effect grade ([14]; 320 g/ha): 0 (Herbicidal ratio of 5% or less (almost no effect)) | G (Setaria viridis) herbicidal effect grade ([15]; 320 g/ha): 4 (Herbicidal ratio of 70% or more and less than 90%) | P (Stellaria media) herbicidal effect grade ([16]; 320 g/ha): 5 (Herbicidal ratio of 90% or more (almost completely withered)) | R (Veronica persica) herbicidal effect grade ([17]; 320 g/ha): 4 (Herbicidal ratio of 70% or more and less than 90%) | f (Beta vulgaris ssp. vulgaris) effect on crop grade ([18]; 320 g/ha): 5 (Herbicidal ratio of 90% or more (almost completely withered)) | g (Brassica campestris L.) effect on crop grade ([19]; 320 g/ha): 3 (Herbicidal ratio of 40% or more and less than 70%) | c (Glycine max) effect on crop grade ([20]; 320 g/ha): 0 (Herbicidal ratio of 5% or less (almost no effect)) | e (Triticum aestivum) effect on crop grade ([21]; 320 g/ha): 0 (Herbicidal ratio of 5% or less (almost no effect)) | b (Zea mays) effect on crop grade ([22]; 320 g/ha): 0 (Herbicidal ratio of 5% or less (almost no effect)) | d (directly sowed Oryza sativa) effect on crop grade ([23]; 320 g/ha): 2 (Herbicidal ratio of 20% or more and less than 40%)
